For 40 compounds, Activity and EC50 results are on record in ChEMBL document CHEMBL1154043, “Synthesis and structure-activity relationship of a novel series of heterocyclic sulfonamide gamma-secretase inhibitors” (Bioorg Med Chem, 2009).

The structures appear in SMILES notation. Activity calls are given as the source filed them. The calls are words filed in the database; no cut-off is given here.

For one test, the system named is CHO. The test is described as follows: Inhibition of gamma-secretase-mediated cleavage of human APP expressed in CHO cells assessed as reduction in amyloid beta42 production after 24 hrs by double sandwich ELISA. The test is classed as cell-based. In general terms: An ELISA detects its analyte on a solid surface through an enzyme-linked reagent.
Test [1] can be described thus: Inhibition of gamma-secretase assessed as effect on APP level after 24 hrs by double sandwich ELISA.
Test [2] is described as follows: Inhibition of gamma-secretase-mediated cleavage of human APP expressed in CHO cells assessed as reduction in amyloid beta40 production after 24 hrs by double sandwich ELISA. The test is classed as cell-based.
A short description of test [3]: Inhibition of gamma-secretase assessed as increase in beta-C-terminal fragment level after 24 hrs by double sandwich ELISA.

For `CCC(CC)C(NC(=O)c1ccc(Cl)cc1)c1ccnn1Cc1ccc(OC)cc1` (stereo not given), the outcome (in the test on CHO; in test [1]; in test [3]) was Active. The EC50 in test [2] stood at 42.4 µM.

For the compound `CCC(CC)C(NS(=O)(=O)c1ccc(Cl)s1)c1nccn1Cc1ccc(OC)cc1` (stereo not given), the outcome (with CHO; in test [1]; in test [3]) was Active. The EC50 in test [2] is 50.6 µM.

As for `CC(C)[C@@H](NS(=O)(=O)c1ccc(Cl)s1)c1ccnn1-c1ccc(F)cc1`, the result (in the test on CHO; in test [1]; in test [3]) was Active. Besides, the EC50 in test [2] was more than 15 µM.

Consider `CCC(CC)C(NS(=O)(=O)c1ccc(Cl)s1)c1ncnn1Cc1ccccc1` (stereo not given), for which the outcome (in the test with CHO; in test [1]; in test [3]) was Active. Moreover, the EC50 in test [2] stood at 1.01 µM.

As for `CC(C)C(NS(=O)(=O)c1ccc(Cl)s1)c1ncnn1Cc1ccccc1` (stereo not given), the outcome (with CHO; in test [1]; in test [3]) was Active. The EC50 in test [2] worked out at 3.36 µM.

Consider `CCC(CC)C(NS(=O)(=O)c1ccc(Cl)s1)c1ccnn1Cc1ccc(OC)cc1` (stereo not given), for which the result (in the test on CHO; in test [1]; in test [3]) was Active. Also, the EC50 in test [2] amounted to 0.13 µM.

In the case of `CCC(CC)C(c1ccnn1-c1ccccc1)N(C)S(=O)(=O)c1ccc(Cl)s1` (stereo not given), the outcome (in the test with CHO; in test [1]; in test [3]) was Active. The EC50 in test [2] came out at 70.2 µM.

For `COc1ccc(Cn2nccc2C(C)NS(=O)(=O)c2ccc(Cl)s2)cc1` (stereo not given), the result (with CHO; in test [1]; in test [3]) was Active. Also, the 50% effective concentration (EC50) in test [2] worked out at 1.2 µM.

`CCC(CC)C(NS(=O)(=O)c1ccc(Cl)s1)c1ncnn1Cc1ccc(C)cc1` (stereo not given): the outcome (in the test with CHO; in test [1]; in test [3]) was Active. In addition, the EC50 in test [2] was 0.88 µM.

Regarding `CCC(CC)[C@@H](NS(=O)(=O)c1ccc(Cl)s1)c1ccnn1Cc1ccc(O)cc1`, the outcome (with CHO; in test [1]; in test [3]) was Active. Moreover, in test [2], the EC50 came out at 8.5 µM.

Take `CCC(CC)C(NS(=O)(=O)c1cc(Cl)c(Cl)s1)c1ccnn1-c1ccccc1` (stereo not given): the outcome (in the test on CHO; in test [1]; in test [3]) was Active. Further, the EC50 in test [2] came to 13.4 µM.

With `Cc1ccc(-n2nccc2C(NS(=O)(=O)c2ccc(Cl)s2)C(C)C)cc1` (stereo not given), the outcome (in the test on CHO; in test [1]; in test [3]) was Active. Moreover, the EC50 in test [2] is 0.42 µM.

As for `CCC(CC)C(c1ccnn1-c1ccccc1)N(C)S(=O)(=O)c1ccc(Br)s1` (stereo not given), the outcome (with CHO; in test [1]; in test [3]) was Active. For the same compound, the EC50 in test [2] is 65.1 µM.

As for `CC(C)C(NS(=O)(=O)c1ccc(Cl)s1)c1ccnn1-c1ccc(F)cc1` (stereo not given), the outcome (with CHO; in test [1]; in test [3]) was Active. For the same compound, the EC50 in test [2] is 2.76 µM.

`CCC(CC)C(NS(=O)(=O)c1ccc(Cl)s1)c1ccnn1-c1ccc(C(F)(F)F)cc1` (stereo not given): the outcome (in the test on CHO; in test [1]; in test [3]) was Active. In test [2], the EC50 was determined as 2.19 µM.

Consider `CCC(CC)C(NS(=O)(=O)c1ccc(Cl)s1)c1ncnn1Cc1ccc(OC(F)(F)F)cc1` (stereo not given), for which the outcome (with CHO; in test [1]; in test [3]) was Active. Further, the EC50 in test [2] was found to be 0.99 µM.

For `CCC(CC)C(NS(=O)(=O)c1ccc(Cl)c(Cl)c1)c1ccnn1-c1ccccc1` (stereo not given), the result (in the test on CHO; in test [1]; in test [3]) was Active. In test [2], the half-maximal effective concentration (EC50) stood at 25.5 µM.

As to `Cc1ccc(Cn2ncnc2C(NS(=O)(=O)c2ccc(Cl)s2)C(C)C)cc1` (stereo not given), the outcome (in the test on CHO; in test [1]; in test [3]) was Active. Besides, the EC50 in test [2] stood at 2.89 µM.

Regarding `CCC(CC)C(NS(=O)(=O)c1ccc(C#N)cc1)c1ccnn1-c1ccccc1` (stereo not given), the result (in the test on CHO; in test [1]; in test [3]) was Active. The EC50 in test [2] came to 85.2 µM.

As to `CCC(CC)C(NS(=O)(=O)c1ccc(Cl)s1)c1nccn1Cc1ccccc1` (stereo not given), the outcome (with CHO; in test [1]; in test [3]) was Active. Besides, the half-maximal effective concentration (EC50) in test [2] was determined as 19.4 µM.

On to `CCC(CC)C(NS(=O)(=O)c1ccc(Cl)s1)c1ccnn1Cc1ccc(O)cc1` (stereo not given), for which the outcome (with CHO; in test [1]; in test [3]) was Active. Also, in test [2], the concentration for a half-maximal effect (EC50) was found to be 0.14 µM.

Regarding `CCC(CC)C(NS(=O)(=O)c1ccc(Cl)cc1)c1ccnn1Cc1ccc(OC)cc1` (stereo not given), the outcome (with CHO; in test [1]; in test [3]) was Active. Moreover, in test [2], the concentration giving a half-maximal response (EC50) is 1.98 µM.

For the compound `CCCC(NS(=O)(=O)c1ccc(Cl)s1)c1ccnn1Cc1ccc(OC)cc1` (stereo not given), the outcome (with CHO; in test [1]; in test [3]) was Active. Further, in test [2], the EC50 turned out to be 0.93 µM.

Consider `CCC(CC)C(NS(=O)(=O)c1ccc(Cl)s1)c1ccnn1-c1ccc(O)cc1` (stereo not given), for which the result (in the test on CHO; in test [1]; in test [3]) was Active. Moreover, the EC50 in test [2] amounted to 0.63 µM.

Regarding `CC(C)C(NS(=O)(=O)c1ccc(Cl)s1)c1ccnn1-c1ccccc1` (stereo not given), the result (with CHO; in test [1]; in test [3]) was Active. The concentration giving a half-maximal response (EC50) in test [2] was determined as 1.12 µM.

On to `CCC(CC)C(NS(=O)(=O)c1ccc(Cl)s1)c1ccnn1-c1ccccc1` (stereo not given), for which the result (in the test with CHO; in test [1]; in test [3]) was Active. For the same compound, the half-maximal effective concentration (EC50) in test [2] turned out to be 1.62 µM.

Regarding `CCC(CC)C(NS(=O)(=O)c1ccc(Cl)s1)c1ncnn1Cc1ccc(F)cc1` (stereo not given), the result (with CHO; in test [1]; in test [3]) was Active. The concentration giving a half-maximal response (EC50) in test [2] was 0.48 µM.

As to `Cc1cccc(-n2nccc2C(NS(=O)(=O)c2ccc(Cl)s2)C(C)C)c1` (stereo not given), the result (in the test with CHO; in test [1]; in test [3]) was Active. The EC50 in test [2] turned out to be 2.53 µM.

For the compound `COc1ccc(Cn2nccc2C(NS(=O)(=O)c2ccc(Cl)s2)C(C)C)cc1` (stereo not given), the outcome (in the test on CHO; in test [1]; in test [3]) was Active. Further, the EC50 in test [2] amounted to 0.41 µM.

Regarding `COc1ccc(Cn2cccc2C(NS(=O)(=O)c2ccc(Cl)s2)C(C)C)cc1` (stereo not given), the result (with CHO; in test [1]; in test [3]) was Active. Also, the EC50 in test [2] worked out at 13.3 µM.

Consider `CCC(CC)C(NS(=O)(=O)c1ccc(Cl)s1)c1ccnn1S(=O)(=O)c1ccc(C)cc1` (stereo not given), for which the outcome (in the test with CHO; in test [1]; in test [3]) was Active. Moreover, in test [2], the concentration for a half-maximal effect (EC50) was found to be 1.68 µM.

Regarding `CCC(CC)[C@@H](NS(=O)(=O)c1ccc(Cl)s1)c1ccnn1Cc1ccc(OC)cc1`, the outcome (in the test with CHO; in test [1]; in test [3]) was Active. Further, the concentration for a half-maximal effect (EC50) in test [2] is more than 15 µM.

Consider `CCC(CC)C(NS(=O)(=O)c1ccc(Br)s1)c1ccnn1-c1ccccc1` (stereo not given), for which the outcome (in the test on CHO; in test [1]; in test [3]) was Active. For the same compound, in test [2], the EC50 amounted to 1.53 µM.

Take `CCC(CC)C(NS(=O)(=O)c1ccc(Cl)cc1)c1ccnn1-c1ccccc1` (stereo not given): the result (in the test with CHO; in test [1]; in test [3]) was Active. In test [2], the EC50 stood at 23 µM.

As for `CCCCn1nccc1C(NS(=O)(=O)c1ccc(Cl)s1)C(CC)CC` (stereo not given), the result (in the test on CHO; in test [1]; in test [3]) was Active. In test [2], the concentration giving a half-maximal response (EC50) worked out at 1 µM.

As to `CCC(CC)C(NS(=O)(=O)c1ccc(Cl)s1)c1ccnn1-c1ccc(OC)cc1` (stereo not given), the outcome (in the test on CHO; in test [1]; in test [3]) was Active. The EC50 in test [2] turned out to be 1.56 µM.

As for `CCC(CC)C(NS(=O)(=O)c1ccc(Br)cc1)c1ccnn1Cc1ccc(OC)cc1` (stereo not given), the result (in the test with CHO; in test [1]; in test [3]) was Active. The concentration giving a half-maximal response (EC50) in test [2] is 2.27 µM.

As for `Cc1ccc(-n2nccc2[C@H](NS(=O)(=O)c2ccc(Cl)s2)C(C)C)cc1`, the outcome (with CHO; in test [1]; in test [3]) was Active. Also, in test [2], the EC50 is more than 15 µM.

Consider `CCC(CC)C(NS(=O)(=O)c1ccc(Cl)s1)c1ccn[nH]1` (stereo not given), for which the outcome (in the test on CHO; in test [1]; in test [3]) was Active. Besides, the EC50 in test [2] was determined as 19.5 µM.

Turning to `CCC(CC)C(NS(=O)(=O)c1ccc(Cl)s1)c1ncnn1Cc1ccc(OC)cc1` (stereo not given), the outcome (in the test with CHO; in test [1]; in test [3]) was Active. The EC50 in test [2] stood at 0.94 µM.

As usually defined, the EC50 is the concentration that produces a half-maximal response.
